# Assay results published in patent US20150057243A1, “Compositions and Methods for the Inhibition of Methyltransferases” (Northeastern University, priority 2012, published 2015).
# Columns and labels:
# [1] = target: T1, human betaine-homocysteine S-methyltransferase (Homo sapiens, UniProt Q93088); settings: cited from earlier work
# T1 sequence (Q93088 1-406): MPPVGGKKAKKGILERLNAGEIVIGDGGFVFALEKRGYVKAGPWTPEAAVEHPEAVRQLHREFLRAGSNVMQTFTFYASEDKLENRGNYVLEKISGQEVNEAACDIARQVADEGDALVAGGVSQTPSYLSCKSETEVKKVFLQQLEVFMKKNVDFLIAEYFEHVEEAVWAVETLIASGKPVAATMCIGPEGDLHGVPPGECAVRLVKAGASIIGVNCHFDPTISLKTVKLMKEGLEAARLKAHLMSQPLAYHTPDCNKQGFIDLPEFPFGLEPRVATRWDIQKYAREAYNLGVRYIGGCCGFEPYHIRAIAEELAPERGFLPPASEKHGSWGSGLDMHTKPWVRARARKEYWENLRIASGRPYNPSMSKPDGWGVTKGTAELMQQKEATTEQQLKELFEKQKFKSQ
# [2] = test system: cells; settings: cited from earlier work
# [3] = target: T2, histidine-tagged TPMT enzyme (Homo sapiens, UniProt P51580); test: AdoVin-TNB binding assay, histidine-tagged TPMT isolated using nickel spin column; settings: XIC (FIG. 30 top panel)
# T2 construct: made in house
# T2 sequence (P51580 1-245): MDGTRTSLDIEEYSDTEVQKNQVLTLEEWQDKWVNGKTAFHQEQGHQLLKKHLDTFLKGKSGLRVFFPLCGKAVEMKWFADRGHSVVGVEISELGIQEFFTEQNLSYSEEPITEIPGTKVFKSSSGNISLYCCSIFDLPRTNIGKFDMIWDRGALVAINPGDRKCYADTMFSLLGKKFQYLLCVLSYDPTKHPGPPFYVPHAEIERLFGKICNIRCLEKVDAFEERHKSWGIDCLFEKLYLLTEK
# Protocol: The histidine-tagged TPMT enzyme was isolated using nickel spin column. 610.0 m/z at 8.6 min is for the TNB-AdoVin adduct (confirmed by tandem mass analysis), 411.0 m/z at 1.6 min is for AdoVin, and 162.0 m/z at 6.2 min is for vinthionine. […] The peak around 1.58 minutes with m/z 411.0 corresponds to AdoVin, while the peak around 6.2 min with m/z 162.0 corresponds to vinthionine.
# Recombinant histidine-tagged human thiopurine methyltransferase (TPMT, EC 2.1.1.67) and S-adenosylhomocysteine nucleosidase (MTAN, EC 3.2.2.9) were purified as described. See Cannon, L. M. et al. Anal. Biochem. 2002, 308, 35/-363; Lee, J. E. et al. Acta Crystallogr. D. Biol. Crystallogr. 2001, 57, 150-152. The recombinant E. coli homocysteine S-methyltransferase (HMT, EC 2.1.1.10) was a gift from Steven G Clark (UCLA Department of Chemistry and Biochemistry, Los Angeles, Calif.), and purified as described. See Vinci, C. R.; Clarke, S. G. J. Biol. Chem. 2010, 285(27), 20526-20531; Vinci, C. R.; Clarke, S. G. J. Biol. Chem. 2007, 282(12), 8604-8612.
# [4] = target: T3, TPMT (Homo sapiens, UniProt P51580); test: specificity assay with AdoVin (time-dependent UV absorbance change); assay type: biochemical; settings: FIG. 34
# T3 construct: made in house
# T3 sequence (P51580 1-245): T2 sequence (P51580 1-245)
# From the text: In comparison, the concentration of 4-methoxybenzylthiol decreased in the presence of AdoVin, indicating a reaction with AdoVin.
# [5] = target: T3, TPMT; settings: data referred to for comparison; cited from earlier work
# [6] = test system: trypanosomes; settings: Goldberg 1997; cited from earlier work
# [7] = test system: Candida albicans and various Aspergillus species; settings: cited from earlier work
# [8] = test system: Leishmania promastigotes; settings: Lawrence 1993, Avila 1993; cited from earlier work
# [9] = test system: mammalian cells; settings: cited from earlier work
smiles,measurement,setting,value
C=CSCCC(N)C(=O)O (racemic) [DL-S-Vinylhomocysteine],inhibition of human betaine-homocysteine S-methyltransferase,[1],not to be an inhibitor
C=CSCC[C@H](N)C(=O)O [L-S-Vinylhomocysteine],active transport into cells,[2],actively transported into cells
"C=CSCC[C@H](N)C(=O)O [vinthionine, S-Demethyl-5-vinyl-L-methionine]",cell permeability,[2],cell permeable
same,presence in the enzyme complex,[3],absence
COc1ccc(CS)cc1 [4-methoxybenzylthiol],time-dependent UV absorbance / concentration change in the presence of AdoVin,[4],decreased
same,reaction with AdoMet (the natural substrate for TPMT),[5],reacts
"C[S+](CC[C@H](N)C(=O)[O-])C[C@H]1O[C@@H](n2cnc3c(N)ncnc32)[C@H](O)[C@@H]1O (stereo partly drawn) [AdoMet, S-Adenosyl-methionine]",active transport into trypanosomes,[6],actively transported
same,active transport into Candida albicans and various Aspergillus species,[7],actively transported
same,active transport into Leishmania promastigotes,[8],actively transported
same,active transport into mammalian cells,[9],not actively transported
O=[N+]([O-])c1ccc(O)cc1 [4-nitrophenol],time-dependent UV absorbance / concentration change in the presence of AdoVin,[4],No change was observed
same,reaction with AdoMet (the natural substrate for TPMT),[5],does not react
